Results reported in article PMC10962247 (Science translational medicine, 2024).

Target: T1, Glycogen synthase 1 (GYS1) (Homo sapiens, UniProt P13807)
T1 sequence (P13807 1-737): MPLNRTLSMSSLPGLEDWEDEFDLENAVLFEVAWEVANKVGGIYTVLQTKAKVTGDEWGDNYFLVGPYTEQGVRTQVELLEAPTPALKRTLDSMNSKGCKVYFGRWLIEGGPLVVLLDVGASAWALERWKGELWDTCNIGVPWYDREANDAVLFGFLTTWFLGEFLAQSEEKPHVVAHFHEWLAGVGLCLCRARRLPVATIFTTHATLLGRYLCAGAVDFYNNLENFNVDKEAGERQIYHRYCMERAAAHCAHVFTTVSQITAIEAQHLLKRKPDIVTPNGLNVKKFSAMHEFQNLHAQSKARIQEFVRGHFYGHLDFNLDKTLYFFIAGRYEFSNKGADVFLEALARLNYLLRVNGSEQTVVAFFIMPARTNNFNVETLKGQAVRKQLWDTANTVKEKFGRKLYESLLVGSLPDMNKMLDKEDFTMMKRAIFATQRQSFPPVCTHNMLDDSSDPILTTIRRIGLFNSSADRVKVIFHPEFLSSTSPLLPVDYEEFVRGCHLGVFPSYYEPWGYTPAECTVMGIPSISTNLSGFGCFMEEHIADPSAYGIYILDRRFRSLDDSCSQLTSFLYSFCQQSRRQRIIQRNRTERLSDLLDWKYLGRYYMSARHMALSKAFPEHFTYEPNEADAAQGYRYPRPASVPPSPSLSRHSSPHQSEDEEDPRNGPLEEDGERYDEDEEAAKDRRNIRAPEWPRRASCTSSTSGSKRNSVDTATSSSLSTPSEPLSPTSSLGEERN
T1 sequence (P46976 2-350 partner): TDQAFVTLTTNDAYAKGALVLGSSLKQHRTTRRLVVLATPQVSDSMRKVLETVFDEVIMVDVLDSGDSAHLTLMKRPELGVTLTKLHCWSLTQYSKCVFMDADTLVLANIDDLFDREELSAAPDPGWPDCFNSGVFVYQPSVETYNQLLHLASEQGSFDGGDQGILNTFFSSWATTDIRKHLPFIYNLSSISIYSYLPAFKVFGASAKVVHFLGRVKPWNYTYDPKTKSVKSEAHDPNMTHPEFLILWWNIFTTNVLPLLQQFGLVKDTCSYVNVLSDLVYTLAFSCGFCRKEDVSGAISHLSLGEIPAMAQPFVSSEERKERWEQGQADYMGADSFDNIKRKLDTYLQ
Experiment: PK/LDH coupled enzyme assay with recombinant GYS1 in the presence of G6P
Type: biochemical

IC50: 41 nM
Compound: CC(C)c1ccc([C@@H](NC(=O)[C@@H]2C[C@@H](F)CN2C(=O)Cc2cn[nH]n2)c2ccccc2)cc1 [MZ-101]
